Data: patent US20110294778A1, “HEPATITIS C INHIBITOR COMPOUNDS” (priority 2009, published 2011)
Where two headings read alike, the source gives them in different places.

Legend:
[1] = tested on: HCV genotype 1a (strain H77) subgenomic replicon with NS3 resistance mutation R155K in Huh-7 cells; experiment: HCV replicon RNA replication assay (NS3 protease variants), genotype 1a R155K; format: cell-based; settings: Hepatitis C virus
[2] = tested on: HCV genotype 1b (Con-1) subgenomic replicon with NS3 resistance mutation D168V in Huh-7 cells; experiment: HCV replicon RNA replication assay (NS3 protease variants), genotype 1b D168V; format: cell-based; settings: Hepatitis C virus
[3] = Huh-7, 72 h, read-out: R155K 1a EC50 (nM)
[4] = Huh-7, 72 h, read-out: D168V 1b EC50 (nM)

Compound | EC50 [1, 3] | EC50 [2, 4] | EC50 ([1]; Huh-7, read-out: R155K 1a Ec50 (nM)) | EC50 ([2]; Huh-7, read-out: D168V 1b Ec50 (nM))
COc1ccc2c(O[C@@H]3C[C@H]4C(=O)N[C@]5(C(=O)NS(=O)(=O)C6CC6)C[C@H]5/C=C\CCCCC[C@H](NC(=O)N5CCC5)C(=O)N4C3)cc(OC(C)C)nc2c1C [Compound 2005, (2R,6S,12Z,13aS,14aR,16aS)-6-[(azetidin-1-ylcarbonyl)amino]-N-(cyclopropylsulfonyl)-2-{[7-methoxy-8-methyl-2-(propan-2-yloxy)quinolin-4-yl]oxy}-5,16-dioxo-1,2,3,6,7,8,9,10,11,13a,14,15,16,16a-tetradecahydrocyclopropa[e]pyrrolo[1,2-a][1,4]diazacyclopentadecine-14a(5H)-carboxamide] | 4.8 nM | 0.82 nM |  | 
COc1c(F)ccc2c(O[C@@H]3C[C@H]4C(=O)N[C@]5(C(=O)NS(=O)(=O)C6(C)CC6)C[C@H]5/C=C\CCCCC[C@H](NC(=O)N(C)C)C(=O)N4C3)cc(OC(C)C)nc12 [Compound 2002, (2R,6S,12Z,13aS,14aR,16aS)-6-[(dimethylcarbamoyl)amino]-2-{[7-fluoro-8-methoxy-2-(propan-2-yloxy)quinolin-4-yl]oxy}-N-[(1-methylcyclopropyl)sulfonyl]-5,16-dioxo-1,2,3,6,7,8,9,10,11,13a,14,15,16,16a-tetradecahydrocyclopropa[e]pyrrolo[1,2-a][1,4]diazacyclopentadecine-14a(5H)-carboxamide] | 4.7 nM | 0.41 nM |  | 
COc1ccc2c(O[C@@H]3C[C@H]4C(=O)N[C@]5(C(=O)NS(=O)(=O)C6(C)CC6)C[C@H]5/C=C\CCCCC[C@H](NC(=O)c5ccc(C)s5)C(=O)N4C3)cc(OC(C)C)nc2c1C [Compound 1004, (2R,6S,12Z,13aS,14aR,16aS)-2-{[7-methoxy-8-methyl-2-(propan-2-yloxy)quinolin-4-yl]oxy}-N-[(1-methylcyclopropyl)sulfonyl]-6-{[(5-methylthiophen-2-yl)carbonyl]amino}-5,16-dioxo-1,2,3,6,7,8,9,10,11,13a,14,15,16,16a-tetradecahydrocyclopropa[e]pyrrolo[1,2-a][1,4]diazacyclopentadecine-14a(5H)-carboxamide] | 2.8 nM | 0.22 nM |  | 
COc1ccc2c(C[C@H]3CC4C(=O)N(C)CCCC/C=C\[C@H]5C[C@]5(C(=O)NS(=O)(=O)C5CC5)NC(=O)[C@@H]4C3)cc(-c3nc(C(C)C)cs3)nc2c1C (stereo partly shown) [reference compound] |  |  | 300 nM | 4400 nM
CCOc1cc(O[C@@H]2C[C@H]3C(=O)N[C@]4(C(=O)NS(=O)(=O)C5(C)CC5)C[C@H]4/C=C\CCCCC[C@H](NC(=O)N(C)C)C(=O)N3C2)c2ccc(OC)c(C)c2n1 [Compound 2006, (2R,6S,12Z,13aS,14aR,16aS)-6-[(dimethylcarbamoyl)amino]-2-[(2-ethoxy-7-methoxy-8-methylquinolin-4-yl)oxy]-N-[(1-methylcyclopropyl)sulfonyl]-5,16-dioxo-1,2,3,6,7,8,9,10,11,13a,14,15,16,16a-tetradecahydrocyclopropa[e]pyrrolo[1,2-a][1,4]diazacyclopentadecine-14a(5H)-carboxamide] | 9.9 nM | 2.1 nM |  | 
COc1ccc2c(O[C@@H]3C[C@H]4C(=O)N[C@]5(C(=O)NS(=O)(=O)C6CC6)C[C@H]5/C=C\CCCCC[C@H](NC(=O)N5CC(F)C5)C(=O)N4C3)cc(OC(C)C)nc2c1C [Compound 2007, (2R,6S,12Z,13aS,14aR,16aS)-N-(cyclopropylsulfonyl)-6-{[(3-fluoroazetidin-1-yl)carbonyl]amino}-2-{[7-methoxy-8-methyl-2-(propan-2-yloxy)quinolin-4-yl]oxy}-5,16-dioxo-1,2,3,6,7,8,9,10,11,13a,14,15,16,16a-tetradecahydrocyclopropa[e]pyrrolo[1,2-a][1,4]diazacyclopentadecine-14a(5H)-carboxamide] | 9 nM | 0.71 nM |  | 
CCOc1cc(O[C@@H]2C[C@H]3C(=O)N[C@]4(C(=O)NS(=O)(=O)C5(C)CC5)C[C@H]4/C=C\CCCCC[C@H](NC(=O)c4ccn(C)n4)C(=O)N3C2)c2ccc(OC)c(C)c2n1 [Compound 1030, (2R,6S,12Z,13aS,14aR,16aS)-2-[(2-ethoxy-7-methoxy-8-methylquinolin-4-yl)oxy]-N-[(1-methylcyclopropyl)sulfonyl]-6-{[(1-methyl-1H-pyrazol-3-yl)carbonyl]amino}-5,16-dioxo-1,2,3,6,7,8,9,10,11,13a,14,15,16,16a-tetradecahydrocyclopropa[e]pyrrolo[1,2-a][1,4]diazacyclopentadecine-14a(5H)-carboxamide] | 6.3 nM | 0.38 nM |  | 
COc1ccc2c(O[C@@H]3C[C@H]4C(=O)N[C@]5(C(=O)NS(=O)(=O)C6(C)CC6)C[C@H]5/C=C\CCCCC[C@H](NC(=O)c5ccc(C)s5)C(=O)N4C3)cc(OC3CC3)nc2c1C [Compound 1012, (2R,6S,12Z,13aS,14aR,16aS)-2-{[2-(cyclopropyloxy)-7-methoxy-8-methylquinolin-4-yl]oxy}-N-[(1-methylcyclopropyl)sulfonyl]-6-{[(5-methylthiophen-2-yl)carbonyl]amino}-5,16-dioxo-1,2,3,6,7,8,9,10,11,13a,14,15,16,16a-tetradecahydrocyclopropa[e]pyrrolo[1,2-a][1,4]diazacyclopentadecine-14a(5H)-carboxamide] | 5.6 nM | 0.26 nM |  | 
COc1ccc2c(O[C@@H]3C[C@H]4C(=O)N[C@]5(C(=O)NS(=O)(=O)C6(C)CC6)C[C@H]5/C=C\CCCCC[C@H](NC(=O)c5ccn(C)n5)C(=O)N4C3)cc(OC3CCC3)nc2c1C [Compound 1022, (2R,6S,12Z,13aS,14aR,16aS)-2-{[2-(cyclobutyloxy)-7-methoxy-8-methylquinolin-4-yl]oxy}-N-[(1-methylcyclopropyl)sulfonyl]-6-{[(1-methyl-1H-pyrazol-3-yl)carbonyl]amino}-5,16-dioxo-1,2,3,6,7,8,9,10,11,13a,14,15,16,16a-tetradecahydrocyclopropa[e]pyrrolo[1,2-a][1,4]diazacyclopentadecine-14a(5H)-carboxamide] | 6.8 nM | 0.24 nM |  | 
CCOc1cc(O[C@@H]2C[C@H]3C(=O)N[C@]4(C(=O)NS(=O)(=O)C5CC5)C[C@H]4/C=C\CCCCC[C@H](NC(=O)c4ccn(C)n4)C(=O)N3C2)c2ccc(OC)c(Br)c2n1 [Compound 1017, (2R,6S,12Z,13aS,14aR,16aS)-2-[(8-bromo-2-ethoxy-7-methoxyquinolin-4-yl)oxy]-N-(cyclopropylsulfonyl)-6-{[(1-methyl-1H-pyrazol-3-yl)carbonyl]amino}-5,16-dioxo-1,2,3,6,7,8,9,10,11,13a,14,15,16,16a-tetradecahydrocyclopropa[e]pyrrolo[1,2-a][1,4]diazacyclopentadecine-14a(5H)-carboxamide] | 9.5 nM | 1.1 nM |  | 
COc1ccc2c(O[C@@H]3C[C@H]4C(=O)N[C@]5(C(=O)NS(=O)(=O)C6(C)CC6)C[C@H]5/C=C\CCCCC[C@H](NC(=O)N5CC(C)(OC)C5)C(=O)N4C3)cc(OC(C)C)nc2c1C [Compound 2009, (2R,6S,12Z,13aS,14aR,16aS)-6-{[(3-methoxy-3-methylazetidin-1-yl)carbonyl]amino}-2-{[7-methoxy-8-methyl-2-(propan-2-yloxy)quinolin-4-yl]oxy}-N-[(1-methylcyclopropyl)sulfonyl]-5,16-dioxo-1,2,3,6,7,8,9,10,11,13a,14,15,16,16a-tetradecahydrocyclopropa[e]pyrrolo[1,2-a][1,4]diazacyclopentadecine-14a(5H)-carboxamide] | 6.8 nM | 2.9 nM |  | 
COc1ccc2c(O[C@@H]3C[C@H]4C(=O)N[C@]5(C(=O)NS(=O)(=O)C6(C)CC6)C[C@H]5/C=C\CCCCC[C@H](NC(=O)c5ccn(CC(C)C)n5)C(=O)N4C3)cc(OC(C)C)nc2c1C [Compound 1020, (2R,6S,12Z,13aS,14aR,16aS)-2-{[7-methoxy-8-methyl-2-(propan-2-yloxy)quinolin-4-yl]oxy}-N-[(1-methylcyclopropyl)sulfonyl]-6-({[1-(2-methylpropyl)-1H-pyrazol-3-yl]carbonyl}amino)-5,16-dioxo-1,2,3,6,7,8,9,10,11,13a,14,15,16,16a-tetradecahydrocyclopropa[e]pyrrolo[1,2-a][1,4]diazacyclopentadecine-14a(5H)-carboxamide] | 3.1 nM | 0.23 nM |  | 
COc1ccc2c(O[C@@H]3C[C@H]4C(=O)N[C@]5(C(=O)NS(=O)(=O)C6(C)CC6)C[C@H]5/C=C\CCCCC[C@H](NC(=O)c5cc[nH]n5)C(=O)N4C3)cc(OC(C)C)nc2c1C [Compound 1009, (2R,6S,12Z,13aS,14aR,16aS)-2-{[7-methoxy-8-methyl-2-(propan-2-yloxy)quinolin-4-yl]oxy}-N-[(1-methylcyclopropyl)sulfonyl]-5,16-dioxo-6-[(1H-pyrazol-3-ylcarbonyl)amino]-1,2,3,6,7,8,9,10,11,13a,14,15,16,16a-tetradecahydrocyclopropa[e]pyrrolo[1,2-a][1,4]diazacyclopentadecine-14a(5H)-carboxamide] | 1.9 nM | 0.49 nM |  | 
COc1ccc2c(O[C@@H]3C[C@H]4C(=O)N[C@]5(C(=O)NS(=O)(=O)C6CC6)C[C@H]5/C=C\CCCCC[C@H](NC(=O)c5ccn(C(F)F)n5)C(=O)N4C3)cc(OC(C)C)nc2c1C [Compound 1027, (2R,6S,12Z,13aS,14aR,16aS)-N-(cyclopropylsulfonyl)-6-({[1-(difluoromethyl)-1H-pyrazol-3-yl]carbonyl}amino)-2-{[7-methoxy-8-methyl-2-(propan-2-yloxy)quinolin-4-yl]oxy}-5,16-dioxo-1,2,3,6,7,8,9,10,11,13a,14,15,16,16a-tetradecahydrocyclopropa[e]pyrrolo[1,2-a][1,4]diazacyclopentadecine-14a(5H)-carboxamide] | 8.4 nM | 0.35 nM |  | 
